Patent US20070243254A1, “NOVEL DRUG COMPOSITIONS AND DOSAGE FORMS OF TOPIRAMATE” (priority 2002, published 2007)
In brackets after ≈: the same amount, converted by molar mass. Like-named read-outs stand apart in the source and are kept apart here.

What was measured:
[1] = equilibrium solubility of topiramate in de-ionized water and aqueous surfactant solutions; assay type: physicochemical; details: for solubility: de-ionized water
Protocol: As defined herein, the solubility of a pharmaceutical agent is determined by adding the pharmaceutical agent to stirred or agitated de-ionized water maintained in a constant temperature bath at a temperature of 37° C. until no more pharmaceutical agent dissolves. The resulting solution saturated with the pharmaceutical agent is then filtered, typically under pressure through a 0.8-micron Millipore filter, and the concentration of the pharmaceutical agent in the solution is measured by any appropriate analytical method including gravimetric, ultraviolet spectrophometry, chromatography, and the like. The solubility of the pharmaceutical agent is measured at equilibrium.
A drug composition of the present invention was prepared as follows. Aqueous solutions of five surfactants were prepared. The selected surfactants were four grades of ethylene oxide/propylene oxide/ethylene oxide (LUTROL grades F127, F87, F108, and F68) and PEG-40 stearate (MYRJ 52). Solutions were made at concentrations of 1, 5, and 15 weight percent. The aqueous surfactant blends solutions were chilled as necessary to promote complete dissolution of the surfactant prior to drug solubility studies.
The aqueous surfactant solutions were equilibrated to constant temperature in a 37° C. water bath. Then, neat topiramate drug was added slowly with stirring in approximately 10 mg increments to the surfactant solutions until no more drug dissolved. A control sample of drug dissolved in de-ionized water without surfactant was included for comparison purposes. The resulting saturated solutions of drug were filtered through 0.8 micron filters and analyzed for drug concentration by refractive index chromatography. The resulting solubility values were plotted as a function of both surfactant concentration and the hydrophilic-lipophilic balance value of each surfactant. FIG. 6 was constructed from the solubility values obtained and HLB data for each surfactant utilized.

[2] = cited from earlier work
[3] = cited from earlier work; remark: listed apart in the source

solubility in water in presence of surfactant ([1]; LUTROL F127, F87, F108, F68, MYRJ 52 at 1, 5, 15 weight percent, 37° C.): increased by each surfactant
solubility ([1]; water, thermodynamic from solid, without surfactant, 37° C., read-out: solubility in de-ionized water): ~12 mg/mL (≈ 35.4 mM)
solubility ([1]; read-out: solubility of neat topiramate (range)): 9.8 to 13 mg/mL (≈ 28.9 to 38.3 mM)
SMILES: CC1(C)O[C@@H]2[C@@H](CO[C@@]3(COS(N)(=O)=O)OC(C)(C)O[C@@H]23)O1 [topiramate, 2,3:4,5-bis-O-(1-methylethylidene)-β-D-fructopyranose sulfamate]
solubility in organic solvents ([2]; acetone, dimethylsulfoxide, ethanol): soluble in acetone, dimethylsulfoxide and ethanol
solubility in alkaline solutions ([2]; alkaline solutions containing sodium hydroxide or sodium phosphate): soluble in alkaline solutions
solubility of topiramate in water ([2]; room temperature): about 9.8 mg/ml
dose proportionality of pharmacokinetics ([3]; in vivo): linear
effect of food on pharmacokinetics ([3]; in vivo): not significantly affected by food
excretion ([3]; in vivo): excreted largely through the urine
mean elimination half life ([3]; in vivo): about 21 hours
metabolism ([3]; in vivo): not extensively metabolized
time to peak plasma drug concentrations ([3]; oral, immediate release dosage form): approximately 2 hours
